# Measured values published in US10004762B2, “Dialysis formulation” (Gambro Lundia AB, priority 2013, dated 2018).
# Like-named read-outs stand apart in the source and are kept apart here.
# Key:
# [1] = human, in vivo
# Experimental: (§1) Trace element concentrations have been analyzed in effluent obtained from hemodialysis (HD) patients at the end of their dialysis session.
# (§2) In the study participated 47 hemodialysis patients. […] All patients received dialysis 3-5 h, 3-4 times per week. Whole blood and plasma samples for trace element analysis were obtained pre- and post-midweek dialysis treatment in 6 ml trace element-free EDTA tubes (BD Vaccutainer®, Stockholm, Sweden). In addition effluent samples were taken post-treatment in 50 ml trace element-free tubes.
# (§3) Analysis of all trace elements was performed by inductively coupled plasma-mass spectrometry (ICP-MS; Thermo X7, Thermo Elemental, Winsford, UK). For plasma and blood a sample volume of 250 μL was diluted 10 times with an alkaline solution according to Bárány et al. The effluent was analysed in acidic condition, i.e. concentrated nitric acid (HNO3) was added to the samples to a final concentration of 2%. Using the dilute solution or 2% HNO3 as a carrier/rinsing fluid, the samples were introduced in a segment-flow mode.
# [2] = in vivo
# [3] = human, in vivo; remark: listed apart in the source
# Experimental: (§4) In the study participated 47 hemodialysis patients. These 47 hemodialysis patients (34 female and 13 male), were divided into 30 non-diabetic and 17 with diabetes mellitus, with an average age of 67 (Table 1). All patients received dialysis 3-5 h, 3-4 times per week. Whole blood and plasma samples for trace element analysis were obtained pre- and post-midweek dialysis treatment in 6 ml trace element-free EDTA tubes (BD Vaccutainer®, Stockholm, Sweden). […] In addition, the same samples were taken at one occasion from a healthy control group. The control group included 51 persons (20 female and 31 male), with an average age of 22.
# as §3
# [4] = Trace element analysis in plasma and whole blood of HD patients and healthy controls (ICP-MS); conditions: for P2 plasma sample post-dialysis ± SEM / P1 plasma sample pre-dialysis ± SEM / B2 whole blood sample post-dialysis ± SEM / B1 whole blood sample pre-dialysis ± SEM: all HD patients; for P control ± SEM / B control ± SEM: healthy controls; for B2 whole blood sample post-dialysis ± SEM / B1 whole blood sample pre-dialysis ± SEM / B control ± SEM: whole blood; for increase of concentration during dialysis: plasma and whole blood, HD patients (FIG. 2)
# Experimental: as §4, §3
# [5] = Loss of trace elements during 24 h CRRT treatment (FIG. 5A-5B); conditions: patients with CRRT (acute dialysis treatment)
# [6] = Trace element concentrations in effluent of hemodialysis patients (ICP-MS); conditions: effluent from HD patients at the end of dialysis session
# Experimental: as §1, §2, §3
# [7] = Loss of trace elements during hemodialysis (HD) treatment (FIG. 5C-5E); conditions: HD patients (chronic dialysis treatment), 4 hours of HD
# [8] = in vivo; remark: listed apart in the source
Molecule,Effluent concentration ± SD [1],actual loss during 24 hours of CRRT [2],B1 whole blood sample pre-dialysis ± SEM [3],B2 whole blood sample post-dialysis ± SEM [3],B control ± SEM [3],P1 plasma sample pre-dialysis ± SEM [3],P2 plasma sample post-dialysis ± SEM [3],P2 plasma sample post-dialysis ± SEM ([4]; plasma),P1 plasma sample pre-dialysis ± SEM ([4]; plasma),B2 whole blood sample post-dialysis ± SEM [4],B1 whole blood sample pre-dialysis ± SEM [4],P control ± SEM ([4]; plasma),B control ± SEM [4],actual loss during 24 hours of CRRT [5],Effluent concentration ± SD [6],actual loss / removal during HD treatment [8],further results
[Mo] [Molybdenum],0.003 ± 0.002 µM,significant loss,2.0 ± 0.2 µg/L,1.0 ± 0.1 µg/L,0.6 ± 0.1 µg/L,2.6 ± 0.2 µg/L,1.3 ± 0.1 µg/L,–,–,–,–,–,–,–,–,–,P control ± SEM [3]: 0.8 ± 0.1 µg/L; decrease of concentration during dialysis [3]: ~50%; plasma concentration post-dialysis [3]: 1.2 ± 0.2 ng/mL; plasma concentration pre-dialysis [3]: 3.1 ± 0.4 ng/mL; reduction of plasma concentration during dialysis [3]: 50%
[Cr] [Chromium],–,–,–,–,–,–,–,5.2 ± 0.6 µg/L,3.3 ± 0.3 µg/L,3.4 ± 0.4 µg/L,2.1 ± 0.2 µg/L,0.3 ± 0.02 µg/L,0.3 ± 0.02 µg/L,significant loss,0.0043 ± 0.008 µM,–,"P1 plasma sample pre-dialysis ± SEM ([4]; plasma, listed as Cr): 3.3 ± 0.3 µg/L; plasma concentration post-dialysis ([4]; diabetic HD patients): 2.5 ± 0.4 ng/mL; P control ± SEM ([4]; plasma, listed as Cr): 0.3 ± 0.02 µg/L; plasma concentration post-dialysis ([4]; non-diabetic HD patients): 3.8 ± 0.4 ng/mL; increase of concentration during dialysis [4]: up to 60%"
[Mn+2] [Manganese],–,–,–,–,–,–,–,3.4 ± 0.9 µg/L,0.8 ± 0.03 µg/L,19.3 ± 1.4 µg/L,17 ± 1.3 µg/L,0.7 ± 0.02 µg/L,9.2 ± 0.4 µg/L,significant loss,0.005 ± 0.005 µM,–,actual loss / removal during HD treatment [7]: no manganese removal at all but rather an uptake; B1 whole blood sample pre-dialysis ± SEM ([4]; listed as Mn): 17.0 ± 1.1 µg/L; blood concentration post-dialysis ([4]; diabetic HD patients): 20 ± 2.7 ng/mL; blood concentration pre-dialysis ([4]; diabetic HD patients): 17 ± 2.1 ng/mL; B control ± SEM ([4]; listed as Mn): 9.2 ± 0.4 µg/L; blood concentration post-dialysis ([4]; non-diabetic HD patients): 19 ± 1.4 ng/mL; blood concentration pre-dialysis ([4]; non-diabetic HD patients): 17 ± 1.3 ng/mL
Zinc,–,–,–,–,–,–,–,685 ± 17 µg/L,644 ± 13 µg/L,5842 ± 131 µg/L,5610 ± 138 µg/L,719 ± 17 µg/L,5189 ± 124 µg/L,some subjects show a uptake of zinc (negative loss) while others show loss of zinc,0.017 ± 0.01 µM,–,actual loss / removal during HD treatment [7]: removal of those trace elements in a majority of the patients; B1 whole blood sample pre-dialysis ± SEM ([4]; listed as Zn): 5610 ± 138 µg/L; B control ± SEM ([4]; listed as Zn): 5189 ± 124 µg/L; increase of concentration during dialysis [4]: ~5%
[Cu] [Copper],0.026 ± 0.015 µM,significant loss,855 ± 18 µg/L,882 ± 17 µg/L,861 ± 27 µg/L,1113 ± 33 µg/L,1178 ± 29 µg/L,–,–,–,–,–,–,–,–,removal of those trace elements in a majority of the patients,increase of concentration during dialysis [3]: ~4%; plasma concentration [3]: 1173 ± 56 ng/mL
Cobalt,–,–,–,–,–,–,–,0.6 ± 0.1 µg/L,0.6 ± 0.03 µg/L,0.5 ± 0.03 µg/L,0.5 ± 0.02 µg/L,0.4 ± 0.02 µg/L,0.3 ± 0.01 µg/L,significant loss,0.0015 ± 0.002 µM,–,"P1 plasma sample pre-dialysis ± SEM ([4]; plasma, listed as Co): 0.6 ± 0.03 µg/L; P control ± SEM ([4]; plasma, listed as Co): 0.4 ± 0.02 µg/L; increase in plasma concentration during dialysis ([4]; plasma, diabetic and non-diabetic HD patients): ~15%"
[Rb] [Rubidium],0.31 ± 0.17 µM,large loss,972 ± 30 µg/L,974 ± 30 µg/L,1966 ± 51 µg/L,187 ± 5 µg/L,150 ± 4 µg/L,–,–,–,–,–,–,–,–,significant removal of rubidium in a majority of the patients,P control ± SEM [3]: 271 ± 5 µg/L; decrease of plasma concentration during dialysis [3]: ~20%
[Se] [Selenium],–,significant loss,–,–,–,–,–,–,–,–,–,–,–,–,–,significant removal of selenium in most patients,Effluent concentration ± SD ([1]; both): 0.01 ± 0.005 µM; B1 whole blood sample pre-dialysis ± SEM ([3]; both): 66 ± 2 µg/L; B2 whole blood sample post-dialysis ± SEM ([3]; both): 68 ± 2 µg/L; B control ± SEM ([3]; both): 102 ± 3 µg/L; P1 plasma sample pre-dialysis ± SEM ([3]; both): 53 ± 2 µg/L; P2 plasma sample post-dialysis ± SEM ([3]; both): 55 ± 2 µg/L; P control ± SEM ([3]; both): 81 ± 1.9 µg/L
